Like-named read-outs stand apart in the source and are kept apart here. Blank lines part the entries; values can stand above or below the compound they belong to.
Tests used:
[1] = cited from earlier work
[2] = Amount of paracetamol at various points in time and different pH; assay type: physicochemical; details: pH range 6.3-7.3, various points in time
From the text: The amount of paracetamol was studied at varies points in time and for different pH's.

[3] = Dissolution of sodium ibuprofen 2H2O in the formulation Paracetamol - Ibuprofen at varying pH; assay type: physicochemical
Experimental: In a further experiment the dissolution of sodium ibuprofen 2H2O was studied in combination with paracetamol at a concentration of 10 mg paracetamol per liter.

[4] = as above; assay type: physicochemical; details: in the formulation 3 mg/ml Paracetamol 10 mg/ml Ibuprofen
[5] = Dissolution of sodium ibuprofen 2H2O alone in water at gradually decreased pH (precipitation observed); assay type: physicochemical; details: for Dissolved: 3.85 mg/ml alone in water; for Dissolution: in water after 1 month storage at 25° C.
Experimental: Precipitation of ibuprofen is observed once pH is at 5.75. The Ibuprofen solutions were stored for 1 month at 25° C. They were again observed for signs of precipitation.

SMILES: CC(C)Cc1ccc(C(C)C(=O)O)cc1 (stereo not drawn) [Ibuprofen, 2-(p-isobutylphenyl)propionic acid]
Precipitation of ibuprofen ([1]; at pH 5.5 to 6.0): precipitates
Solubility in water [1]: very poorly soluble

Degradation of paracetamol [2]: minimal degradation
SMILES: CC(=O)Nc1ccc(O)cc1 [paracetamol, N-(4-hydroxyphenyl)acetamide]
pH at which rate of degradation of paracetamol is minimal ([1]; aqueous solution (Koshy et al., 1961)): ~6
Degradation of paracetamol ([1]; at pH 7): significant

Dissolution ([3]; 1 month storage at 25° C., pH 6.2): No
Dissolution ([3]; 1 month storage at 25° C., pH 6.3): Yes
Dissolution ([3]; 1 month storage at 25° C., pH 6.4): Yes
Dissolution ([3]; 1 month storage at 25° C., pH 6.6): Yes
Dissolution ([3]; 1 month storage at 25° C., pH 7): Yes
Dissolution ([3]; 6 months, 25° C., pH 6.3): Yes
Dissolution ([3]; 6 months, 25° C., pH 6.4): Yes
Dissolution ([3]; 6 months, 25° C., pH 6.6): Yes
Dissolution ([3]; 6 months, 25° C., pH 7): Yes
Dissolved ([4]; pH 6.2): Yes
Dissolved ([4]; pH 6.3): Yes
Dissolved ([4]; pH 6.4): Yes
Dissolved ([4]; pH 6.6): Yes
Dissolved ([4]; pH 7): Yes
Dissolved ([5]; pH 3): No
Dissolved ([5]; pH 4): No
Dissolved ([5]; pH 5): No
Dissolved ([5]; pH 5.5): No
Dissolved ([5]; pH 5.8): Yes
Dissolved ([5]; pH 6): Yes
Dissolved ([5]; pH 6.2): Yes
Dissolved ([5]; pH 6.4): Yes
Dissolved ([5]; pH 6.6): Yes
Dissolved ([5]; pH 6.8): Yes
Dissolved ([5]; pH 7): Yes
Dissolved ([5]; pH 7.5): Yes
pH at which precipitation of ibuprofen is observed ([5]; 3.85 mg/ml in water, pH gradually decreased from 8.80): 5.75
Dissolution ([5]; pH 5.8): No
Dissolution ([5]; pH 6): No
Dissolution ([5]; pH 6.2): Yes
Dissolution ([5]; pH 6.4): Yes
Dissolution ([5]; pH 6.6): Yes
Dissolution ([5]; pH 6.8): Yes
Dissolution ([5]; pH 7): Yes
Dissolution ([5]; pH 7.5): Yes
Precipitation ([5]; solution at pH 6, stored for 1 month at 25° C.): showed precipitation
Precipitation ([5]; solution at pH 6.2, stored for 1 month at 25° C.): precipitation was absent
SMILES: CC(C)Cc1ccc(C(C)C(=O)O)cc1 (stereo not drawn) [sodium ibuprofen 2H2O]
